Square brackets hold non-standard residues; d marks the D form. Peptide text beside a SMILES is read from it. Nle = CCCC[C@H](N)C(=O)O
Key:
calpain = assay: Calpain inhibitor test: Fura-2 and EYFP fluorescence in primary cultures of cerebellum expressing F2C, potassium stimulation; type: cell-based, rat; conditions: ALLN 100 μM, ALLM 50 μM; for percentage of F535 EYFP maximum fluorescence change to Fura-2 maximum ratio change versus control free of calpain inhibitors: p>0.28; for percentage of F535 EYFP maximum fluorescence change to Fura-2 maximum ratio change (mean ± S.E.M.): preincubation 1 hr, potassium stimulation, n=10 cells
Description: (§1) The primary culture of cerebellum was incubated at 37° C., in 5% CO2 and 95% O2 atmosphere. The cells on a cover glass slip were infected with Sindbis-F2C 24 hrs before the incubation with Fura-2/AM (Molecular Probes, Eugene, Oregon, U.S.A.). This glass slip was transferred to a new dish filled with an external solution (ACSF, artificial cerebro-spinal fluid; 155 mM NaCl, 2.5 mM CaCl2, 1 mM MgCl2, 10 mM, HEPES, 17 mM glucose and 5 mM KOH and adjusted to pH 7.4). Fura-2/AM was added to a final concentration of 20 μM, and further incubated for 30 min at 37° C. Fura-2/AM (10 mM) stock was dissolved in DMSO. Cerebella cultures were transferred under the upright microscope equipped with a cooled CCD camera, and the image was prepared (ORCA-ER on Aquacosmos, Hamamatsu Photonics, Hamamatsu, Japan). For Fura-2 imaging, excitation light at wavelength 340 nm (10 nm band widths, 100% transmission) and excitation light at wavelength 380 nm (10 nm band widths, 100% transmission) were alternately applied, and fluorescence was captured at 510 nm and at longer wavelength. When F2C fluorescence was measured simultaneously, excitation light at 440 nm (10 nm band widths, 100% transmission) was applied and the fluorescence at a wavelength longer than 510 nm was captured. This fluorescence corresponds to EYFP. When FRET was measured from brain slice preparations or from cerebella cultures, neurons were excited at 440 nm (20 nm band width 60% transmission, XF1071 Omega Optical) with a dichroic mirror at 435 ram (XF2034 Omega Optical) and the fluorescence was monitored through 480 nm (30 nm bandwidth 75% transmission, XF3075 Omega Optical) for ECFP and 535 nm (25 nm bandwidth 70% transmission, XF3079 Omega Optical+50% ND filter) for EYFP.
To test the inhibition of calpain activities, calpain inhibitor-1 (ALLN, Calbiochem) and calpain inhibitor-2 (ALLM, Calbiochem) were adopted and Fura-2 fluorescence and EYFP fluorescence measurements were similarly conducted. The primary cultures of cerebellum were preincubated in ACSF containing ALLN (100 μM in DMSO), ALLM (50 μM in DMSO) or a combination of both for 1 hr. The same concentration of DMSO was added to ACSF as a control.

[1] = test system: cochlear nucleus neurons in brain slices; assay: FRET fluorescence ratio (ECFP/EYFP) in cochlear nucleus neurons of brain-stem slices after in vivo Sindbis injection, KCl stimulation; type: cell-based, rat
Description: Young Wistar rats (9-10 days old) were anesthetized with chloral hydrate (0.3 mg/g body weight). Then, the head of rat was fixed on a stereotaxis stage with a pair of ear bars and a nose clamp (SR-5N, Narishige, Tokyo, Japan). The head skin was sagittally incised and a small hole was made through the skull to expose the cerebellum. A micropipette was inserted through cerebellum, and a suspension of Sindbis virus encoding F2C protein (Sindbis-F2C) was injected (0.5-1 μl) into the brainstem by applying a mild positive pressure to the micropipette with the mouth. The incised part of the skin was then sutured and the rat was returned to the mother after recovery from anesthesia. […]
(§2) The primary culture of cerebellum was incubated at 37° C., in 5% CO2 and 95% O2 atmosphere. […] For Fura-2 imaging, excitation light at wavelength 340 nm (10 nm band widths, 100% transmission) and excitation light at wavelength 380 nm (10 nm band widths, 100% transmission) were alternately applied, and fluorescence was captured at 510 nm and at longer wavelength. When F2C fluorescence was measured simultaneously, excitation light at 440 nm (10 nm band widths, 100% transmission) was applied and the fluorescence at a wavelength longer than 510 nm was captured. This fluorescence corresponds to EYFP. […]

μ-calpain = molecular target: T1, μ-calpain (Homo sapiens, UniProt P07384); assay: Western blotting for cleavage of the fusion protein by calpain; type: biochemical; conditions: incubated with purified μ-calpain in Ca-EGTA buffer (data not shown)
T1 construct: purchased Calbiochem
T1 sequence (P07384 1-714): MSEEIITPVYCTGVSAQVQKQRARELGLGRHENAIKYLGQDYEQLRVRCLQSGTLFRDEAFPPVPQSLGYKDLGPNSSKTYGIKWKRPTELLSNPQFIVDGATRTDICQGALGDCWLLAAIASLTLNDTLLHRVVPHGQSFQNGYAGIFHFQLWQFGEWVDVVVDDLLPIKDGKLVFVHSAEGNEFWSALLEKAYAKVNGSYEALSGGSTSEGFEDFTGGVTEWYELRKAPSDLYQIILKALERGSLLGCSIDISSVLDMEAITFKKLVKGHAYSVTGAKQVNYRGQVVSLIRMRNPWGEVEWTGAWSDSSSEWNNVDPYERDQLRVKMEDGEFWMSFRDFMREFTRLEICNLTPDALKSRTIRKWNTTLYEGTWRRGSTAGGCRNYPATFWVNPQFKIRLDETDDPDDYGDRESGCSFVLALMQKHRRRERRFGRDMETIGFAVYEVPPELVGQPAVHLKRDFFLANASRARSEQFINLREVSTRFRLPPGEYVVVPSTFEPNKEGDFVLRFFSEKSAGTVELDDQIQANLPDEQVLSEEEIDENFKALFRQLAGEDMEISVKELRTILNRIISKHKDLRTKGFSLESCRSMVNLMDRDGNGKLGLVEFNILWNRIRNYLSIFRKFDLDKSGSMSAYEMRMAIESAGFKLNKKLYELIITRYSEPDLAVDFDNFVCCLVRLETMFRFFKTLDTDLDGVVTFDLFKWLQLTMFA
T1 sequence (P04632 1-268 partner): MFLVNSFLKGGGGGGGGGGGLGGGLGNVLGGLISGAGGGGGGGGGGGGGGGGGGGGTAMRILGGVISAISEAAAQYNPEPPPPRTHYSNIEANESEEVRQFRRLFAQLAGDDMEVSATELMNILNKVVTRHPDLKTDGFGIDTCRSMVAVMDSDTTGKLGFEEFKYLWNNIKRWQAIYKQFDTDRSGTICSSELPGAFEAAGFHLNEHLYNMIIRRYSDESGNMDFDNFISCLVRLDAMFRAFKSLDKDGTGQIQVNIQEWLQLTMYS
Description: To obtain cell lysate, cells were pelletized and homogenized in EGTA buffer (10 mM EGTA-Na, 10 mM HEPES-K, 150 mM NaCl) or Ca-EGTA buffer (10 mM CaCl2, 10 mM EGTA-Na, 10 mM HEPES-K, 150 mM NaCl). The Ca^2+ concentration was finally adjusted to 20 μM. The cell lysates contained the protease inhibitor cocktail (Nacalai Tesque). The cell lysates were incubated at 30° C. for 30 min or 60 min. In some experiments, cell lysates were incubated with a purified μ-calpain (Calpain I, Calbiochem, California, U.S.A.) at 30° C. for 30 min or 60 min. These cell lysates were centrifuged at 20,000×g for 20 min and the supernatants were fractionated. The supernatants were loaded onto 10% SDS-PAGE gels. Western blotting was carried out according to the method of Towbin et al. (Towbin, H. et al., Proc. Natl. Acad. Sci. U.S.A., 76, 4350-4354, 1979), using mouse anti-GFP antibody for detecting F2C cleavage (dilution rate 1:1000, MBL, Nagoya, Japan) and anti-PKC α antibody (dilution rate 1:500, Upstate, N.Y., U.S.A.) to confirm calpain activity.

Ca^2+ = assay: Simultaneous Fura-2 and F2C fluorescence measurement, Ca2+ titration and kinetics; type: cell-based, rat
Description: as §1
Rmax=2.38 and Rmin=0.58 were obtained by measurement from the Purkinje cell membrane loaded with Fura-2 perforated with 1 μM ionomycin, after equilibration with normal ACSF ([…]) for Rmax and equilibration with 0 mM CaCl2, 10 mM EGTA ACSF for Rmin. […]

[2] = test system: cerebellar Purkinje cells; assay: FRET fluorescence ratio (ECFP/EYFP) in cultured Purkinje cells expressing the indicator, KCl stimulation; type: cell-based, rat
Description: Purkinje cells were cultured in the same manner as reported previously (Weber, A. et al., Brain Res., 311, 119-130, 1984/Hirano, T. et al., Proc. Natl. Acad. Sci. U.S.A., 83, 1945-1949, 1986). In short, cerebella were dissected from Wistar rat fetus (about 20 days of fetal stage), and meninges were removed. The cerebella were incubated at 20° C. for 4 min in 1% trypsin (Invitrogen, California, U.S.A.)/0.05% DNase (Sigma, Missouri, U.S.A.) solution containing 137 mM NaCl, 5 mM KCl, 7 mM Na2PO4, and 25 mM HEPES (pH 7.2). After washing with Ca^2+- and Mg^2+-free Hanks' balanced salt solution (Invitrogen) three times, the tissue was dispersed by trituration with a fire polished Pasteur pipette in Ca^2+-free Hanks' balanced salt solution containing 0.05% DNase and 12 mM MgSO4. The cell suspension was centrifuged at 180×g at room temperature and the pelletized cells were resuspended at a concentration of 10^6 cells per 1 ml in a defined medium, which facilitates the survival of neurons (Weber, A. et al., Brain Res., 311, 119-130, 1984/Fischer, G. et al., Neurosci Lett, 28, 325-329, 1982). 2 ml of this cell suspension was plated on a Petri dish containing several heat-sterilized glass coverslips coated with 0.01% poly-L-lysin (Sigma). This cell culture was incubated at 37° C. in 5% CO2. The cells on the glass coverslips were used for infection with Sindbis virus. […]
as §2

| Compound | percentage of F535 EYFP maximum fluorescence change to Fura-2 maximum ratio change versus control free of calpain inhibitors (calpain) | percentage of F535 EYFP maximum fluorescence change to Fura-2 maximum ratio change (mean ± S.E.M.) (calpain) [%] | time over which reversible changes of the ECFP/EYFP fluorescence ratio were observed ([1]; 10 mM KCl stimulation, cochlear nucleus neurons, FIG. 9) | change of FRET fluorescence ratio on exposure to high KCl solution ([1]; brainstem slices, 15 mM KCl applied 3 times) | fragmented protein signal in Western blot (cleavage by calpain) (μ-calpain) | speed of Ca^2+ response (20-80% rise time of F535) compared with Fura-2 (F340/F380) (Ca^2+; n=240 cells, various CaCl2 and KCl conditions) | Hill coefficient (Ca^2+; titration of F2C, pH 7.4) | Kd (Ca^2+; titration of F2C, pH 7.4, read-out: apparent Kd value for Ca^2+) [nM] | ECFP/EYFP fluorescence ratio change ([2]; Purkinje cells 14DIV exposed to 7.5 mM KCl (basal 5 mM)) [fold] | ECFP/EYFP fluorescence ratio change ([2]; Purkinje cells 14DIV exposed to 10 mM KCl (basal 5 mM)) [fold] | ECFP/EYFP fluorescence ratio change ([2]; Purkinje cells 14DIV exposed to 15 mM KCl (basal 5 mM)) [fold] |
| --- | --- | --- | --- | --- | --- | --- | --- | --- | --- | --- | --- |
| CCCC[C@@H](C=O)NC(=O)[C@H](CC(C)C)NC(=O)[C@H](CC(C)C)NC(C)=O [ALLN] (Ac-Leu-Leu-[Nle]-aldehyde) | not different | 37.1 ± 2.1 | – | – | – | – | – | – | – | – | – |
| CSCC[C@@H](C=O)NC(=O)[C@H](CC(C)C)NC(=O)[C@H](CC(C)C)NC(C)=O [ALLM] (Ac-Leu-Leu-Met-aldehyde) | not different | 35.9 ± 1.4 | – | – | – | – | – | – | – | – | – |
| F2C: Fusion protein (SEQ ID NO:6): GAP43 palmitoylation signal, ECFP, two α-spectrin calpain sensitive sequences, EYFP | – | – | at least 200 min | changed reversibly | not detected | almost the same speed | 4 | 150 | 1.03 | 1.39 | 1.78 |

From patent publication US7713713B2, “Polypeptide having intracellular calcium ion indicator function” (Kyoto University, priority 2005, dated 2010)
